Measured values taken from patent publication US20110251144A1, “MOLECULAR MODULATORS OF THE WNT/BETA-CATENIN PATHWAY” (MASSACHUSETTS INSTITUTE OF TECHNOLOGY, priority 2008, published 2011).
“Also recorded” adds a separate entry of the source. Where two headings read alike, the source gives them in different places.

Key:
[1] = system: Wnt/β-catenin signaling (beta-catenin activated reporter, BAR); assay: High throughput small molecule screen, beta-catenin activated reporter (BAR) in HT22 cells; assay type: cell-based, mouse
Experimental: Compounds were dissolved in dimethylsulphoxide (DMSO). For the primary screen, performed in duplicate, HT22 cells stably expressing the beta-catenin activated reporter (BAR) were cultured in growth medium (DMEM/10% FBS/1% antibiotic). 3000 cells per well were transferred to 384-well clear bottom plates (Nalgene Nunc; Rochester, N.Y.) in 30 μL of growth medium. The following day, […] of compound and 10 μL of either growth media or WNT3A conditioned media (E.C.50 dose) was transferred to the cells. The next day each well was imaged using transmitted light with the ImageXpress Micro (Molecular devices; Sunnyvale, Calif.) followed by the addition of 10 μL of Steady-Glo (Promega; Madison, Wis.) as per the manufacture's instructions, and luminescence measurement on an EnVision Multilabel plate reader (PerkinElmer; Waltham, Mass.). Viability was scored by analyzing the ImageXpress images. As described in detail in Seiler et al. (Seiler et al., Nucleic Acids Res. 36:D351 (2008), which is hereby incorporated by reference in its entirety), each compound well received an algebraically signed Z-score corresponding to the number of standard deviations it fell above or below the mean of a well-defined mock-treatment distribution of DMSO controls. Z-score normalized data from the growth media stimulus group were sorted by average percent change. The fold-increase over the background of DMSO controls for each treatment was also calculated. Top compounds with the greatest percent change of activity with the growth media were then resorted based on the percent change with the WNT3A stimulus.
These compounds represent FDA approved compounds and drugs or known bioactive molecules. RKO (human colorectal carcinoma red line) and HT22 (mouse hyppocampal line) cell lines were screened. The lines were tested without a stimulus, in presence of an E.C.50 dose of Wnt 3A condition media and in presence of a subthreshold dose of LiCl.

[2] = system: Wnt/β-catenin signaling (beta-catenin activated reporter, BAR); assay: High throughput small molecule screen, Wnt/β-catenin reporter in RKO cells; assay type: cell-based, human
[3] = Suitability for murine therapeutic trials (toxicity, serum levels); assay type: in vivo; settings: mice
[4] = system: Axin2, Si/Gp100, Kit and other melanocytic genes; assay: Quantitative PCR of endogenous gene targets in B16 melanoma cells; assay type: cell-based, murine
Experimental: Cells were cultured for approximately 72 hours until they reached 80-90% confluency. RNA was purified using the RNeasy kit using the manufacturer's protocol (Qiagen; Maryland, MD). cDNA was synthesized using Superscript Reverse Transcriptase (Invitrogen; Grand Island, N.Y.). […] Quantitative PCR results presented in the manuscript are representative of experiments performed on a minimum of three biologic replicates.

B16 cells [5] = assay: Proliferation of B16 cells by MTT assay; assay type: cell-based, murine
nuclear β-catenin = assay: Immunofluorescent staining of β-catenin in B16 cells; assay type: cell-based, murine; settings: 10 mM lithium chloride or BIO, versus sodium chloride or DMSO
Experimental: A polyclonal rabbit anti-β-catenin antibody was used for detection of β-catenin (1:1000 dilution for immunoblot, 1:200 dilution for immunohistochemistry). Cells were grown on 18 mm glass coverslips, for 48-72 hours, fixed using 4% paraformaldahyde, permeabilized using 0.25% Triton X-100, and then blocked with 10% goat serum. Goat anti-rabbit Alexa Fluor-568 antibody (Molecular Probes; Eugene, Oreg.) was diluted 1:1000. Cells were counterstained for nucleic acid with DAPI (Molecular Probes; Eugene, Oreg.). Paraffin-embedded nevus sections were stained using an antibody dilution of 1:200. Cellular lysates were obtained by lysing cells on plate with a 0.1% NP-40 based buffer and analyzed by NuPage 4-12% gradient gels (Invitrogen; Grand Island, N.Y.). The WNT5A antibody was obtained from Cell Signaling Technologies (Danvers, Mass.).

[6] = system: human melanoma xenografts; settings: mouse model, Namkoong et al. 2007; cited from earlier work
B16 cells [7] = assay: Pigmentation of cultured B16 cells; assay type: cell-based, murine; settings: B16 cells treated for 2 passages, 10 μM
B16 melanoma cells = assay: B16 footpad tumor inoculation, tumor size and metastasis in C57BL/6 mice; assay type: in vivo
Experimental: Footpad injections of transduced B16 melanoma cells and measurement of popliteal lymph node and lung metastasis was performed as previously described (Murakami et al., Cancer Res. 62:7328 (2002), which is hereby incorporated by reference in its entirety). […] Fumagalli et al., Exp. Neurol. 198:114 (2006), which are hereby incorporated by reference in their entirety). […] All animal studies were performed using IACUC protocols approved by institutional review boards.

Axin2 promoter = assay: Secondary screen, firefly luciferase under the Axin2 promoter in HEK293T cells; assay type: cell-based; settings: alone and with WNT3A conditioned media
[8] = HT22 cells, in presence of a subthreshold dose of LiCl
[9] = HT22 cells, in presence of an E.C.50 dose of Wnt 3A condition media
[10] = RKO cells, in presence of a subthreshold dose of LiCl
[11] = RKO cells, in presence of an E.C.50 dose of Wnt 3A condition media
[12] = 10 mM lithium chloride or 1 μM BIO

Row | Molecule | HT22 Li [1] | HT22 Wnt3a [1] | RKO Li [2] | RKO Wnt3a [2] | HT22 Li [1, 8] | HT22 Wnt3a [1, 9] | RKO Li [2, 10] | RKO Wnt3a [2, 11] | also measured
1 | Cc1[nH]c(=O)c(C#N)cc1-c1ccncc1 [milrinone] | 0.98 | 1.75 | 1.00 | 1.20 | – | – | – | – | –
2 | CCCCCCCCCCCCCCCCCC(=O)O[C@H](CC(=O)[O-])C[N+](C)(C)C [stearoylcarnitine] | – | – | – | – | 3.21 | 0.38 | 0.92 | 0.10 | –
3 | azathioprine | – | – | – | – | 0.76 | 2.67 | 1.06 | 1.30 | –
4 | O=C1Nc2cc(Br)ccc2/C1=C1/Nc2ccccc2/C1=N\O [BIO, 6-bromoindirubin-3′-oxime] | – | – | – | – | – | – | – | – | Obstacles to murine therapeutic trials [3]: several obstacles relating to both toxicity; Axin2 levels by quantitative PCR [4, 12]: increased Axin2 levels; Proliferation by MTT assay (B16 cells [5]; [12]): decreased proliferation; Nuclear β-catenin by immunofluorescent staining (nuclear β-catenin): increased nuclear β-catenin
5 | Cl.Cl.FC(F)(F)c1ccc2c(c1)N(CCCN1CCN(CCCl)CC1)c1ccccc1S2 [Fluphenazine-N-2-chloroethane, Dihydrochloride] | 1.32 | 0.13 | 4.27 | 0.08 | – | – | – | – | –
6 | Nc1nc2ccc(OC(F)(F)F)cc2s1 [riluzole] | – | – | – | – | – | – | – | – | Proliferation / growth of human melanoma xenografts [6]: could decrease proliferation of human melanoma xenografts; Pigmentation (B16 cells [7]): increased pigmentation; Expression of melanocytic genes ([4]; 72 hours, 10 mM lithium chloride or 10 μM riluzole): elevation in levels of melastatin (Trpm1) and Kit transcripts; also recorded: upregulation of melanocytic genes; Sentinel popliteal lymph node metastasis (Firefly luciferase) (B16 melanoma cells; 9 mice per group, versus control mice with no treatment): significantly decreased metastasis; Tumor size (B16 melanoma cells; after 21 days, treatment initiated one week post-injection, oral in drinking water): No significant difference; Lung metastasis, mice affected (B16 melanoma cells; versus 3 out of 9 control mice): 0 out of 9; Proliferation by MTT assay (B16 cells [5]; three days, 10 μM riluzole): decreased proliferation; Activation of firefly luciferase under the Axin2 promoter (Axin2 promoter): both on its own as well as in synergy with WNT3A conditioned media
